Assay results from patent US20160346249A1 (priority 2012, published 2016).
Values joined by “and” are separate entries in the source; they are usually repeats but may differ in a detail not shown here. Equal entries are not always repeated. Where two headings read alike, the source gives them in different places.

Key:
[1] = 26-week rat toxicity and toxicokinetic study; assay type: in vivo; settings: for AUC(0-t): Crl:CD(SD)IGS BR, rat, plasma, po, 8 mg/kg/day, EB-1010 8 mg/kg/day, read-out: AUC0-24 of metabolite
Experimental: A portion of the animals from each group was maintained for an additional 4-week post-treatment recovery period.
For toxicology assessment, groups comprised thirty animals of each gender. Assessments included clinical observations, body weight, and food consumption measures noted periodically during the study. […] Ophthalmic examinations were performed during Weeks 1 and 13. […] In addition, the liver, vagina, and ovaries were identified as potential target tissues and were examined microscopically for all animals from all groups at the primary and recovery necropsies. […] 10 animals of each gender from each group were held to week 30 for a 4-week post-treatment recovery period.
For the toxicokinetic studies, there were ten animals of each gender in each group.

[2] = Crl:CD-1(ICR) BR, mouse, in vivo
[3] = Single dose 300 mg / 450 mg pharmacokinetic, safety and tolerability study in healthy male and female subjects; settings: for Cmax / half-life / Tmax / AUC(0-t) / concentration at 0 h / concentration at 0.5 h / concentration at 1 h / concentration at 2 h / concentration at 3 h / concentration at 4 h / concentration at 6 h / concentration at 8 h / concentration at 10 h / concentration at 12 h / concentration at 18 h / concentration at 24 h / concentration at […]: human, plasma
Text: Fourteen subjects, divided equally between males and females, were enrolled in the study and randomized between test article (5/sex) and placebo (2/sex). […] All subjects met the inclusion and exclusion criteria for entry into the study as detailed in the protocol and signed an informed consent form.
The subjects were confined to the clinical study site from Day −1 to the morning of Day 2, when they underwent a brief physical examination, clinical laboratory tests, and a physician visit before they were discharged. On Day 7, they reported to the clinical site again and were confined to the site until the morning of Day 9. At that time, they underwent a complete physical examination, clinical laboratory tests, and a physician's visit before they were discharged from the study. All subjects were fasted overnight on Days −1 and 7 from approximately 22:00 to approximately 4 hours post-dose on Days 1 and 8, at which time they received a standard lunch.
Subjects that received the placebo (2/sex) ingested six identical looking capsules with no drug. […] Capsules on both days were ingested with 240 mL water. […] Samples were collected into lithium heparin-containing Vacutainers® and centrifuged at approximately 3000 rpm to obtain the plasma fraction. The plasma was split into two polypropylene tubes and stored at −20° C. […] The urine volumes were recorded and an aliquot was stored for drug concentration measurements.
Validated LC/MS/MS assays were used for analyses; the assay range for both analytes in plasma and urine were 5.00 to 2000 ng/mL.
Plasma concentration-time data for each subject were analyzed with WinNonlin, version 4.1 (Pharsight Corporation, Mountain View, Calif.) using a non-compartmental model. […] Plasma concentrations listed as not detected (ND) or below the lower limit of quantitation (LLOQ) were set to zero. The values of Cmax and Tmax were the observed values for each subject. AUC0-t was determined using the linear trapezoidal rule whenever the concentration data were increasing and the logarithmic trapezoidal rule any time that the concentration data were decreasing. The apparent λz was calculated as the negative slope of the log-linear terminal portion of the blood concentration-time curve using linear regression. To allow for accurate calculation of λz, a minimum of three observations, selected by WinNonlin, was used. The t½ was calculated as ln 2/λz. AUC0-t was extrapolated to infinity (AUC0-∞) as follows: AUC0-∞=AUC0-t+Clast/λz where Clast is the last quantifiable concentration. The apparent oral clearance (CL/F) was calculated as Dose/AUC0-∞. The apparent oral volume of distribution (Vz/F) was calculated as Dose/λz×AUC0-∞. The mean residence time from time zero to infinity (MRT0-∞) was calculated as AUMC0-∞/AUC0-∞.

In the case of `O=C1NCC2(c3ccc(Cl)c(Cl)c3)CC12` (stereo not drawn) [EB-10101, 5-(3,4-dichloro-phenyl)-3-aza-bicyclo[3.1.0]hexan-2-one], the “AUC0-24 of metabolite relative to parent drug” value ([1]; Day 0) was “approximately 7 fold”, the “AUC0-24 of metabolite relative to parent drug” value ([1]; Day 177) was ≤ 14 fold and the AUC(0-t) ([1]; female, females, Day 177) was 88100 ng·h/mL. The AUC(0-t) ([1]; male, males, Day 177) was 80400 ng·h/mL, the “AUC0-24 of metabolite relative to parent drug” value [2] was 2-5 fold and the “AUC0-24 of metabolite relative to parent drug” value ([2]; 150 mg/kg/day) was ≤ 10 fold. The “AUC24-∞ as share of total exposure” value ([3]; 300 mg) was 38%, the “concentration at 24 hr as % of Cmax” value ([3]; 300 mg) was 50% and the “ingested dose in urine as lactam (0-24 hr)” value ([3]; 300 mg) was 0.075%. The “AUC24-∞ as share of total exposure” value ([3]; 450 mg) was 54%, the “concentration at 24 hr as % of Cmax” value ([3]; 450 mg) was 65% and the “ingested dose in urine as lactam (0-24 hr)” value ([3]; 450 mg) was 0.067%. The Cmax ([3]; both, oral, 300 mg) was 2030 ng/mL, the half-life ([3]; both, oral, 300 mg, harmonic mean of half-life of lactam) was 14.3 h and the Cmax ([3]; both, oral, 450 mg) was 2950 ng/mL. The Tmax ([3]; both, oral, 450 mg) was 7.8 to 9 h, the half-life ([3]; both, oral, 450 mg, harmonic mean of half-life of lactam) was 19.8 h and the AUC(0-t) ([3]; both, po, 300 mg) was 33300 ng·h/mL. The Cmax ([3]; both, po, 300 mg) was 2030 ng/mL, the Tmax ([3]; both, po, 300 mg) was 7.8 h and the concentration at 0 h ([3]; both, po, 300 mg) was 0 ng/mL. For the same molecule, the concentration at 0.5 h ([3]; both, po, 300 mg) was 42.8 ng/mL, the concentration at 1 h ([3]; both, po, 300 mg) was 296 ng/mL and the concentration at 2 h ([3]; both, po, 300 mg) was 900 ng/mL. It also gave a concentration at 3 h ([3]; both, po, 300 mg) of 1410 ng/mL, a concentration at 4 h ([3]; both, po, 300 mg) of 1540 ng/mL and a concentration at 6 h ([3]; both, po, 300 mg) of 1690 ng/mL. For the same molecule, the concentration at 8 h ([3]; both, po, 300 mg) was 1900 ng/mL, the concentration at 10 h ([3]; both, po, 300 mg) was 1830 ng/mL and the concentration at 12 h ([3]; both, po, 300 mg) was 1580 ng/mL. The concentration at 18 h ([3]; both, po, 300 mg) was 1390 ng/mL, the concentration at 24 h ([3]; both, po, 300 mg) was 1010 ng/mL and the concentration at […] ([3]; both, po, 300 mg) was 1.52 ng/mL and 175 ng/mL and 473 ng/mL and 589 ng/mL. It also gave a half-life ([3]; both, po, 300 mg, t½ (Harmonic mean), single oral 300 mg DOV 21,947 HCl IR, N = 10) of 14.3 h, a half-life ([3]; both, po, 300 mg, t½, single oral 300 mg DOV 21,947 HCl IR, arithmetic mean, N = 10) of 15.4 h and an AUC(0-t) ([3]; both, po, 450 mg) of 50700 ng·h/mL. The Cmax ([3]; both, po, 450 mg) was 2950 ng/mL, the Tmax ([3]; both, po, 450 mg) was 9 h and the concentration at 0 h ([3]; both, po, 450 mg) was 0 ng/mL. The concentration at 0.5 h ([3]; both, po, 450 mg) was 71 ng/mL, the concentration at 1 h ([3]; both, po, 450 mg) was 337 ng/mL and the concentration at 2 h ([3]; both, po, 450 mg) was 1330 ng/mL. For the same molecule, the concentration at 3 h ([3]; both, po, 450 mg) was 1820 ng/mL, the concentration at 4 h ([3]; both, po, 450 mg) was 2160 ng/mL and the concentration at 6 h ([3]; both, po, 450 mg) was 2520 ng/mL. The concentration at 8 h ([3]; both, po, 450 mg) was 2670 ng/mL, the concentration at 10 h ([3]; both, po, 450 mg) was 2770 ng/mL and the concentration at 12 h ([3]; both, po, 450 mg) was 2620 ng/mL. The concentration at 18 h ([3]; both, po, 450 mg) was 2010 ng/mL, the concentration at 24 h ([3]; both, po, 450 mg) was 1920 ng/mL and the concentration at […] ([3]; both, po, 450 mg) was 0 ng/mL and 184 ng/mL and 646 ng/mL and 807 ng/mL. The half-life ([3]; both, po, 450 mg, t½ (Harmonic mean), single oral 450 mg DOV 21,947 HCl IR, N = 10) was 19.8 h, the half-life ([3]; both, po, 450 mg, t½, single oral 450 mg DOV 21,947 HCl IR, arithmetic mean, N = 10) was 32.6 h and the AUC(0-t) ([3]; female, po, 300 mg) was 37300 ng·h/mL. For the same molecule, the Cmax ([3]; female, po, 300 mg) was 2320 ng/mL, the Tmax ([3]; female, po, 300 mg) was 9.2 h and the concentration at 0 h ([3]; female, po, 300 mg) was 0 ng/mL. The concentration at 0.5 h ([3]; female, po, 300 mg) was 22.8 ng/mL, the concentration at 1 h ([3]; female, po, 300 mg) was 188 ng/mL and the concentration at 2 h ([3]; female, po, 300 mg) was 760 ng/mL. It also gave a concentration at 3 h ([3]; female, po, 300 mg) of 1340 ng/mL, a concentration at 4 h ([3]; female, po, 300 mg) of 1600 ng/mL and a concentration at 6 h ([3]; female, po, 300 mg) of 1870 ng/mL. For the same molecule, the concentration at 8 h ([3]; female, po, 300 mg) was 2210 ng/mL, the concentration at 10 h ([3]; female, po, 300 mg) was 1980 ng/mL and the concentration at 12 h ([3]; female, po, 300 mg) was 1760 ng/mL. The concentration at 18 h ([3]; female, po, 300 mg) was 1690 ng/mL, the concentration at 24 h ([3]; female, po, 300 mg) was 1190 ng/mL and the concentration at […] ([3]; female, po, 300 mg) was 0 ng/mL and 111 ng/mL and 317 ng/mL and 426 ng/mL. For the same molecule, the half-life ([3]; female, po, 300 mg, t½ (Harmonic mean), single oral 300 mg DOV 21,947 HCl IR, N = 5) was 15 h, the half-life ([3]; female, po, 300 mg, t½, single oral 300 mg DOV 21,947 HCl IR, N = 5, arithmetic mean) was 15.5 h and the AUC(0-t) ([3]; female, po, 450 mg) was 55300 ng·h/mL. The Cmax ([3]; female, po, 450 mg) was 3360 ng/mL, the Tmax ([3]; female, po, 450 mg) was 8.8 h and the concentration at 0 h ([3]; female, po, 450 mg) was 0 ng/mL.
